How the values were obtained:
ERP57 = test: Biotinylation of cell surface proteins, 2D gel electrophoresis and mass spectrometry: ERP57; assay type: cell-based, mouse; details: 4 h treatment, vs untreated cells
Description: Biotinylation and recovery of cell surface proteins were performed with a method adopted from Gottardi et al. (Gottardi, C. J. et al., “Biotinylation and assessment of membrane polarity: caveats and methodological concerns,” Am J Physiol 268, F285-295 (1995)) and Hanwell et al. (Hanwell, D. et al., “Trafficking and cell surface stability of the epithelial Na+ channel expressed in epithelial Madin-Darby canine kidney cells,” J Biol Chem 277, 9772-9779 (2002)). Briefly, 20×10^6 CT26 cells grown on 75 cm^2 flask were placed on ice and washed three times with ice-cold PBS-Ca^2+—Mg^2+ (PBS with 0.1 mM CaCl2 and 1 mM MgCl2). Membrane proteins were then biotinylated by a 30-minute incubation at 4° C. with NHS-SS-biotin 1.25 mg/ml freshly diluted into biotinylation buffer (10 mM triethanolamine, 2 mM CaCl2, 150 mM NaCl, pH 7.5) with gentle agitation. CT26 cells were rinsed with PBS-Ca^2+—Mg^2++glycine (100 mM) and washed in this buffer for 20 minutes at 4° C. to quench unreacted biotin. The cells were then rinsed twice with PBS-Ca^2+—Mg^2+, scraped in cold PBS, and pelleted at 2,000 rpm at 4° C. The pellets were solubilized for 45 min in […] of lysis buffer (1% Triton X-100, 150 mM NaCl, 5 mM EDTA, 50 mM Tris, pH 7.5) containing protease inhibitors. The lysates were clarified by centrifugation at 14,000×g for 10 min at 4° C., and the supernatants were incubated overnight with packed streptavidin-agarose beads to recover biotinylated proteins. The beads were then pelleted by centrifugation, and aliquots of supernatants were taken to represent the unbound, intracellular pool of proteins. Biotinylated proteins were eluted from the beads by heating to 100° C. for 5 minutes in SDS-PAGE sample buffer before loading onto a 10% SDS-PAGE gel as described above. To ensure the absence of leakage of biotin into the cells, the absence of the intracellular protein actin and GAPDH in biotinylated extracts was systematically verified.
Purified proteins were precipitated using the Ettan 2-D clean up kit were subsequently resuspended in urea buffer (7M urea, 2M thiourea, 2% Chaps, 1% Sulfobetaine SB3-10, 1% Amidosulfobetaine ASB14, 50 mM DTT). For the first dimension of protein separation, isoelectric focusing (IEF) was performed using 18-cm immobilized nonlinear pH gradient strips (pH 3 to 10; GE Healthcare) on a electrophoresis unit. […]

CRT [1] = test: Fluorescence detection of cell surface CRT (cytofluorometry); details: intact cells
Description: CT26 cells (on a glass slide or in 12-well plates) were first washed with FACS buffer (1×PBS, 5% fetus bovine serum, and 0.1% sodium azide) and then incubated with rabbit anti-mouse CRT antibody (1:100, Stressgen), or rabbit anti-mouse ERP57 antibody (abcam) in FACS buffer at 4° C. for 30 min. […] After washing three times with FACS buffer, surface CRT and ERP57 was detected by cytofluorometric analysis on a FACS Vantage. In some experiments, cells were fixed with 4% paraformaldehyde, counterstained with Hoechst (2 μM; Sigma), followed by fluorescence microscopic assessment.
Trypsinized CT26 cells were enucleated as described. Briefly, cells were treated in 2 ml of complete RPMI medium containing cytochalasin B (10 μg/ml; Sigma) and DNase I (80 U/ml; Sigma). […] Gradients containing cell suspensions were centrifugated in a prewarmed SW41 Beckman rotor at 25 000 rpm for 20 minutes at 30° C. […] Then the cell surface CRT was detected (see materials and methods) and the viability was determined by with propidium iodine staining (2 μg/ml, Sigma) for 5 min followed by cytofluorometric analysis.

CT26 tumor cells = test: Anti-tumor vaccination: treated dying CT26 cells injected s.c., challenge with live tumor cells in opposite flank; assay type: in vivo, BALB/c mice; details: CT26 cells treated in vitro with agent alone, immunocompetent BALB/c mice
CRT [2] = test: Biotinylation of cell surface proteins, 2D gel electrophoresis and mass spectrometry: CRT; assay type: cell-based, mouse; details: 4 h treatment, vs untreated cells
Description: Biotinylation and recovery of cell surface proteins were performed with a method adopted from Gottardi et al. (Gottardi, C. J. et al., “Biotinylation and assessment of membrane polarity: caveats and methodological concerns,” Am J Physiol 268, F285-295 (1995)) and Hanwell et al. (Hanwell, D. et al., “Trafficking and cell surface stability of the epithelial Na+ channel expressed in epithelial Madin-Darby canine kidney cells,” J Biol Chem 277, 9772-9779 (2002)). Briefly, 20×10^6 CT26 cells grown on 75 cm^2 flask were placed on ice and washed three times with ice-cold PBS-Ca^2+—Mg^2+ (PBS with 0.1 mM CaCl2 and 1 mM MgCl2). Membrane proteins were then biotinylated by a 30-minute incubation at 4° C. with NHS-SS-biotin 1.25 mg/ml freshly diluted into biotinylation buffer (10 mM triethanolamine, 2 mM CaCl2, 150 mM NaCl, pH 7.5) with gentle agitation. CT26 cells were rinsed with PBS-Ca^2+—Mg^2++glycine (100 mM) and washed in this buffer for 20 minutes at 4° C. to quench unreacted biotin. The cells were then rinsed twice with PBS-Ca^2+—Mg^2+, scraped in cold PBS, and pelleted at 2,000 rpm at 4° C. The pellets were solubilized for 45 min in […] of lysis buffer (1% Triton X-100, 150 mM NaCl, 5 mM EDTA, 50 mM Tris, pH 7.5) containing protease inhibitors. […]

CT26 cells = test: Phagocytosis assay: uptake of treated tumor cells by dendritic cells; assay type: cell-based, mouse; details: before apoptotic changes
Description: BM cells were flushed from the tibias and femurs of BALB/c mice with culture medium composed of RPMA 1640 medium supplemented with 10% heat-inactivated FBS, sodium pyruvate, […] 2-ME. 10 mM HEPES (pH 7.4), and penicillin/streptomycin. After one centrifugation, BM cells were resuspended in Tris-ammonium chloride for 2 min to lyse RBC. After one more centrifugation, BM cells (1×10^6 cells/ml) were cultured in medium supplemented with 100 ng/ml recombinant mouse FLT3 ligand in 6-well plates. […] In 12-well plates, […] adherent CT26 cells were labeled with Celltracker Orange and then incubated with drugs. […] Alternatively CT26 cells were coated with 3 μg/10^6 cells of rCRT on ice for 30 minutes and washed twice prior to addition to dendritic cells. Cells were then harvested, washed three times with medium supplemented with FBS and cocultured with immature DC for 2 hours at a ratio of 1:1 and 1:5. At the end of the incubation, cells were harvested with Versene, pooled with non-adherent cells present in the supernatant, washed and stained with CD11c-FITC antibody. Phagocytosis was assessed by FACS analysis of double positive cells. Phagocytic indexes refer to the ratio between values obtained at […] of co-incubation between DC and tumor cells. Trypsinized CT26 cells were enucleated as described. Briefly, cells were treated in 2 ml of complete RPMI medium containing cytochalasin B (10 μg/ml; Sigma) and DNase I (80 U/ml; Sigma). Cell suspension was adjusted to a final concentration of 5×10^6/ml and incubated at 37° C. for 45 minutes before being layered onto a previously prepared discontinuous Ficoll density gradient (3 ml of 100%, in 1 ml of 90% and 3 ml of 55% Ficoll Paque layer containing 5 μg/ml cytochalasin B and 40 U/ml DNase I; gradients were prepared in ultracentrifuge tubes and pre-equilibrated at 37° C. in a CO2 incubator overnight). Gradients containing cell suspensions were centrifugated in a prewarmed SW41 Beckman rotor at 25 000 rpm for 20 minutes at 30° C. The cytoplasts-enriched fraction was collected from the interface between 90 and 100% Ficoll layers, washed in complete RPMI 1640 medium, and incubated at 37° C. The cells were incubated with mitoxantrone (MTX), calyculin (CA), salubrinal (Sal) and toutomycin (TA) for the period of time indicated in the experiment. […] Alternatively cythoplasts were cocultured with immature DC for 2 hours at a ratio of 1:1 and 1:5. At the end of the incubation, cells were harvested with versene, pooled with non-adherent cells present in the supernatant, washed and stained with CD11c-FITC antibody. Phagocytosis was assessed by FACS analysis of double positive cells.

SMILES: COc1cccc2c1C(=O)c1c(O)c3c(c(O)c1C2=O)C[C@@](O)(C(=O)CO)C[C@@H]3O[C@H]1C[C@H](N)[C@H](O)[C@H](C)O1 [doxorubicin]
- induction of surface ERP57 spot 1, factor (ERP57): 4.1
- induction of surface ERP57 spot 2, factor (ERP57): 3.4
- induction of surface ERP57 spot 3, factor (ERP57): 8
- induction of surface ERP57 spot 4, factor (ERP57): 8.1
- time after treatment at which CRT exposure is detectable (CRT [1]): 1 h
- immunogenicity of cell death (protection against tumor growth on rechallenge) (CT26 tumor cells): elicited immunogenic cell death
- induction of surface CRT, factor (CRT [2]): 6
- time after treatment at which tumor cells are phagocytosed by DC (CT26 cells): within a few hours after treatment

Source: patent US20090004211A1, “METHOD FOR EFFECTING LOCALIZED, NON-SYSTEMIC AND SYSTEMIC, IMMUNOGENIC TREATMENT OF CANCER USING ERP57 TRANSLOCATION” (priority 2006, published 2009)
